According to US20210317134A1, “UBIQUITIN-SPECIFIC-PROCESSING PROTEASE 7 (USP7) MODULATORS AND USES THEREOF” (RAPT THERAPEUTICS, INC., priority 2019, published 2021):
pIC50: −log10 of the molar value.

The compounds below were run against USP7 (Homo sapiens, UniProt Q93009) (assay: USP7 inhibitory potency (Table 1)).
Assay type: biochemical

Chain of USP7 (Q93009 whole entry): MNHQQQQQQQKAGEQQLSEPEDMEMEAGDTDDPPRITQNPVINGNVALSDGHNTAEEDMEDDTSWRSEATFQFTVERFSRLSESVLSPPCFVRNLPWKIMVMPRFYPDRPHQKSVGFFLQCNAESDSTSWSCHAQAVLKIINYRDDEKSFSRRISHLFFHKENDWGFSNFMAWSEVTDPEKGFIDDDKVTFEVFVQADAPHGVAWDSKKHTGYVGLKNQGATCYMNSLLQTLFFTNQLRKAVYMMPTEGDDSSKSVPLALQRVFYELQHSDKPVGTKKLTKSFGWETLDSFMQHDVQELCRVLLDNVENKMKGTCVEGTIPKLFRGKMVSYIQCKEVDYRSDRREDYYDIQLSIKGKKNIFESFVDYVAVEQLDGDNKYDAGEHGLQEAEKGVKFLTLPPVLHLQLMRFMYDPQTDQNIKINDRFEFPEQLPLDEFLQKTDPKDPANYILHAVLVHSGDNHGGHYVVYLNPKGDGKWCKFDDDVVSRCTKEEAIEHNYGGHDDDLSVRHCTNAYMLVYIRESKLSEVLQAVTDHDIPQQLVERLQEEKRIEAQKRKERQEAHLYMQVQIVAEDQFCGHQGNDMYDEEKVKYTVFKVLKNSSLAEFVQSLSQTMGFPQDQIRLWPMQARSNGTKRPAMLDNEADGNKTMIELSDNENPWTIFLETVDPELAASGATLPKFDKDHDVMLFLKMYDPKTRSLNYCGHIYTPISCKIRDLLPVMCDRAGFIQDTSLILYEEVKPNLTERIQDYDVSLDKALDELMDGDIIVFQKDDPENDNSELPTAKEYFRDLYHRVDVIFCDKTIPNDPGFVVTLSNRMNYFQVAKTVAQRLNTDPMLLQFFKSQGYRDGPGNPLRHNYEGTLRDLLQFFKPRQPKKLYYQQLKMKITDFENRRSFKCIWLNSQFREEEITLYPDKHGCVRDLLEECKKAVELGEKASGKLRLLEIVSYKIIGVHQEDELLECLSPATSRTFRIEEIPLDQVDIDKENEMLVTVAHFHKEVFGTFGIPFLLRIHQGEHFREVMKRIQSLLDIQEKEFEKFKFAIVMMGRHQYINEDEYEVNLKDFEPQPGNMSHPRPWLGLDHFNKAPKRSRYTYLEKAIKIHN

Structure (SMILES)	pIC50
CC1(c2onc3c2CNCC3)Cc2cc(Cl)cc(-c3ccnc4cc(CO)sc34)c2O1 (stereo not shown) [(7-(5-chloro-2-methyl-2-(4,5,6,7-tetrahydroisoxazolo[4,3-c]pyridin-3-yl)-2,3-dihydrobenzofuran-7-yl)thieno[3,2-b]pyridin-2-yl)methanol]	> 6.00
Clc1cc2c(c(-c3ccnc4ccccc34)c1)O[C@@H](c1onc3c1CNCC3)C2 [(R)-3-(5-chloro-7-(quinolin-4-yl)-2,3-dihydrobenzofuran-2-yl)-4,5,6,7-tetrahydroisoxazolo[4,3-c]pyridine]	> 6.00
CN(C)C1CN(C(=O)[C@H]2Cc3cc(Cl)cc(-c4ccnc5ccsc45)c3O2)C1 [(R)-(5-chloro-7-(thieno[3,2-b]pyridin-7-yl)-2,3-dihydrobenzofuran-2-yl)(3-(dimethylamino)azetidin-1-yl)methanone]	> 6.00
FC(F)(F)CNCc1cc2nccc(-c3cc(Cl)cc4c3O[C@@H](c3onc5c3CNCC5)C4)c2s1 [(R)-N-((7-(5-chloro-2-(4,5,6,7-tetrahydroisoxazolo[4,3-c]pyridin-3-yl)-2,3-dihydrobenzofuran-7-yl)thieno[3,2-b]pyridin-2-yl)methyl)-2,2,2-trifluoroethan-1-amine]	> 6.00
CNCCNC(=O)[C@H]1Cc2cc(Cl)cc(-c3ccnc4cc(CO)sc34)c2O1 [(R)-5-chloro-7-(2-(hydroxymethyl)thieno[3,2-b]pyridin-7-yl)-N-(2-(methylamino)ethyl)-2,3-dihydrobenzofuran-2-carboxamide]	> 6.00
CC(Cc1cc2nccc(-c3cc(Cl)cc4c3O[C@@H](C(=O)N3CCNCC3)C4)c2s1)NS(C)(=O)=O (stereo partly drawn) [N-(1-(7-((R)-5-chloro-2-(piperazine-1-carbonyl)-2,3-dihydrobenzofuran-7-yl)thieno[3,2-b]pyridin-2-yl)propan-2-yl)methanesulfonamide]	> 6.00
O=C(C1Cc2cc(Cl)cc(-c3ccnc4[nH]c(-c5ccccc5)cc34)c2O1)N1CCNCC1 (stereo not shown) [(5-chloro-7-(2-phenyl-1H-pyrrolo[2,3-b]pyridin-4-yl)-2,3-dihydrobenzofuran-2-yl)(piperazin-1-yl)methanone]	4.52 to 5.00
OCC1Cc2nccc(-c3cc(Cl)cc4c3O[C@@H](c3onc5c3CNCC5)C4)c2O1 (stereo partly drawn) [(7-((R)-5-chloro-2-(4,5,6,7-tetrahydroisoxazolo[4,3-c]pyridin-3-yl)-2,3-dihydrobenzofuran-7-yl)-2,3-dihydrofuro[3,2-b]pyridin-2-yl)methanol]	4.52 to 5.00
CC[C@H](O)c1cc2nccc(-c3cc(Cl)cc4c3O[C@@](C)(c3onc5c3CNCC5)C4)c2s1 [(S)-1-(7-((R)-5-chloro-2-methyl-2-(4,5,6,7-tetrahydroisoxazolo[4,3-c]pyridin-3-yl)-2,3-dihydrobenzofuran-7-yl)thieno[3,2-b]pyridin-2-yl)propan-1-ol]	> 6.00
OCc1ccc2c(-c3cc(Cl)cc4c3O[C@@H](c3onc5c3CNCC5)C4)ccnc2c1 [(R)-(4-(5-chloro-2-(4,5,6,7-tetrahydroisoxazolo[4,3-c]pyridin-3-yl)-2,3-dihydrobenzofuran-7-yl)quinolin-7-yl)methanol]	> 6.00
Cn1nc2c(c1[C@H]1Cc3cc(Cl)cc(-c4ccnc5cc(CO)sc45)c3O1)CNCC2 [(R)-(7-(5-chloro-2-(2-methyl-4,5,6,7-tetrahydro-2H-pyrazolo[4,3-c]pyridin-3-yl)-2,3-dihydrobenzofuran-7-yl)thieno[3,2-b]pyridin-2-yl)methanol]	> 6.00
Cc1cc(-c2cc(Cl)cc3c2OC(C(=O)N2CCNCC2)C3)ccn1 (stereo not shown) [(5-Chloro-7-(2-methylpyridin-4-yl)-2,3-dihydrobenzofuran-2-yl)(piperazin-1-yl)methanone]	4.52 to 5.00
O=C(C1Cc2cc(Cl)cc(-c3ccnc4[nH]ccc34)c2O1)N1CCC(O)(Cc2cccnc2)CC1 (stereo not shown) [(5-chloro-7-(1H-pyrrolo[2,3-b]pyridin-4-yl)-2,3-dihydrobenzofuran-2-yl)(4-hydroxy-4-(pyridin-3-ylmethyl)piperidin-1-yl)methanone]	4.52 to 5.00
CC(O)c1ccc2c(-c3cc(Cl)cc4c3O[C@@H](C(=O)N3CCNCC3)C4)ccnc2c1 (stereo partly drawn) [((2R)-5-chloro-7-(7-(1-hydroxyethyl)quinolin-4-yl)-2,3-dihydrobenzofuran-2-yl)(piperazin-1-yl)methanone]	> 6.00
O=C1CCC(=O)N1Cc1cc2nccc(-c3cc(Cl)cc4c3O[C@@H](c3onc5c3CNCC5)C4)n2n1 [(R)-1-((7-(5-chloro-2-(4,5,6,7-tetrahydroisoxazolo[4,3-c]pyridin-3-yl)-2,3-dihydrobenzofuran-7-yl)pyrazolo[1,5-a]pyrimidin-2-yl)methyl)pyrrolidine-2,5-dione]	> 6.00
O=C([C@H]1Cc2cc(Cl)cc(-c3ncnc4ccoc34)c2O1)N1CCNCC1 [(R)-(5-chloro-7-(furo[3,2-d]pyrimidin-4-yl)-2,3-dihydrobenzofuran-2-yl)(piperazin-1-yl)methanone]	4.52 to 5.00
CN(C)[C@H]1CCN(C(=O)[C@H]2Cc3cc(Cl)cc(-c4ccnc5cc(CO)sc45)c3O2)C1 [((R)-5-chloro-7-(2-(hydroxymethyl)thieno[3,2-b]pyridin-7-yl)-2,3-dihydrobenzofuran-2-yl)((S)-3-(dimethylamino)pyrrolidin-1-yl)methanone]	5.00 to 6.00
Cc1nc(-c2cc(Cl)cc3c2O[C@@H](c2onc4c2CNCC4)C3)c2sccc2n1 [(R)-3-(5-chloro-7-(2-methylthieno[3,2-d]pyrimidin-4-yl)-2,3-dihydrobenzofuran-2-yl)-4,5,6,7-tetrahydroisoxazolo[4,3-c]pyridine]	4.52 to 5.00
CN(C)[C@H]1CCN(C(=O)[C@H]2Cc3cc(Cl)cc(-c4ccnc5ccsc45)c3O2)C1 [((R)-5-chloro-7-(thieno[3,2-b]pyridin-7-yl)-2,3-dihydrobenzofuran-2-yl)((S)-3-(dimethylamino)pyrrolidin-1-yl)methanone]	5.00 to 6.00
O=C(C1Cc2cc(Cl)cc(-c3ccnc4[nH]ccc34)c2O1)N1CCN[C@H](CO)C1 (stereo partly drawn) [(5-chloro-7-(1H-pyrrolo[2,3-b]pyridin-4-yl)-2,3-dihydrobenzofuran-2-yl)((S)-3-(hydroxymethyl)piperazin-1-yl)methanone]	5.00 to 6.00

More lines, now with the values ahead:

pIC50	Structure (SMILES)
4.52 to 5.00	O=C(C1Cc2cc(Cl)c(F)c(-c3ccnc4[nH]ccc34)c2O1)N1CCNCC1 (stereo not shown)
5.00 to 6.00	Clc1cc2c(c(-c3ccnc4ccnn34)c1)OC(c1onc3c1CNCC3)C2 (stereo not shown) [3-(5-chloro-7-(pyrazolo[1,5-a]pyrimidin-7-yl)-2,3-dihydrobenzofuran-2-yl)-4,5,6,7-tetrahydroisoxazolo[4,3-c]pyridine]
> 6.00	CC1CCC(=O)N1Cc1cc2nccc(-c3cc(Cl)cc4c3O[C@@H](C(=O)N3CCNCC3)C4)c2s1 (stereo partly drawn) [1-((7-((R)-5-chloro-2-(piperazine-1-carbonyl)-2,3-dihydrobenzofuran-7-yl)thieno[3,2-b]pyridin-2-yl)methyl)-5-methylpyrrolidin-2-one]
5.00 to 6.00	CN(C)C1CCN(C(=O)C2Cc3cc(Cl)cc(-c4ccnc5[nH]ccc45)c3O2)CC1 (stereo not shown) [(5-chloro-7-(1H-pyrrolo[2,3-b]pyridin-4-yl)-2,3-dihydrobenzofuran-2-yl)(4-(dimethylamino)piperidin-1-yl)methanone]
> 6.00	O=C1CCC(=O)N1Cc1cc2nccc(-c3cc(Cl)cc4c3O[C@@H](c3onc5c3CNCC5)C4)c2s1 [(R)-1-((7-(5-chloro-2-(4,5,6,7-tetrahydroisoxazolo[4,3-c]pyridin-3-yl)-2,3-dihydrobenzofuran-7-yl)thieno[3,2-b]pyridin-2-yl)methyl)pyrrolidine-2,5-dione]
5.00 to 6.00	O=C(C1CCNCC1)C1Cc2cc(Cl)cc(-c3ccnc4[nH]ccc34)c2O1 (stereo not shown) [(5-chloro-7-(1H-pyrrolo[2,3-b]pyridin-4-yl)-2,3-dihydrobenzofuran-2-yl)(piperidin-4-yl)methanone]
> 6.00	CCC(O)c1cc2nccc(-c3cc(Cl)cc4c3O[C@@H](c3ocnc3CN(C)C)C4)c2s1 (stereo partly drawn) [1-(7-((R)-5-chloro-2-(4-((dimethylamino)methyl)oxazol-5-yl)-2,3-dihydrobenzofuran-7-yl)thieno[3,2-b]pyridin-2-yl)propan-1-ol]
> 6.00	CN(C)C1CCc2noc([C@H]3Cc4cc(Cl)cc(-c5ccnc6cc(CO)sc56)c4O3)c2C1 (stereo partly drawn) [(7-((2R)-5-chloro-2-(5-(dimethylamino)-4,5,6,7-tetrahydrobenzo[c]isoxazol-3-yl)-2,3-dihydrobenzofuran-7-yl)thieno[3,2-b]pyridin-2-yl)methanol]
> 6.00	O=C([C@H]1Cc2cc(Cl)cc(-c3ccnc4ccsc34)c2O1)N1CCNCC1 [(R)-(5-chloro-7-(thieno[3,2-b]pyridin-7-yl)-2,3-dihydrobenzofuran-2-yl)(piperazin-1-yl)methanone]
4.52 to 5.00	Clc1cc2c(c(-c3ncnc4c3CCC4)c1)O[C@@H](c1onc3c1CNCC3)C2 [(R)-3-(5-chloro-7-(6,7-dihydro-5H-cyclopenta[d]pyrimidin-4-yl)-2,3-dihydrobenzofuran-2-yl)-4,5,6,7-tetrahydroisoxazolo[4,3-c]pyridine]
> 6.00	COc1ccc(CN2C(=O)CN(Cc3cc4nccc(-c5cc(Cl)cc6c5O[C@@H](C(=O)N5CCNCC5)C6)c4s3)C2=O)cc1 [(R)-1-((7-(5-chloro-2-(piperazine-1-carbonyl)-2,3-dihydrobenzofuran-7-yl)thieno[3,2-b]pyridin-2-yl)methyl)-3-(4-methoxybenzyl)imidazolidine-2,4-dione]
5.00 to 6.00	O=C(C1Cc2cc(Cl)cc(-c3ccnc4[nH]ccc34)c2O1)N1CCC(c2cnc[nH]2)CC1 (stereo not shown) [(4-(1H-imidazol-5-yl)piperidin-1-yl)(5-chloro-7-(1H-pyrrolo[2,3-b]pyridin-4-yl)-2,3-dihydrobenzofuran-2-yl)methanone]
> 6.00	CCCC(O)c1cc2nccc(-c3cc(Cl)cc4c3O[C@@H](c3onc5c3CNCC5)C4)c2s1 (stereo partly drawn) [1-(7-((R)-5-chloro-2-(4,5,6,7-tetrahydroisoxazolo[4,3-c]pyridin-3-yl)-2,3-dihydrobenzofuran-7-yl)thieno[3,2-b]pyridin-2-yl)butan-1-ol]
> 6.00	CN(C)C1CN(C(=O)[C@H]2Cc3cc(Cl)cc(-c4ccnc5cc(CO)sc45)c3O2)C1 [(R)-(5-chloro-7-(2-(hydroxymethyl)thieno[3,2-b]pyridin-7-yl)-2,3-dihydrobenzofuran-2-yl)(3-(dimethylamino)azetidin-1-yl)methanone]
